Test results published in patent publication US20180185374A1, “INHIBITORS OF MTOR KINASE AS ANTI-VIRAL AGENTS” (THE TRUSTEES OF PRINCETON UNIVERSITY, priority 2009, published 2018).

Assays:
[1] = tested on: HCMV; experiment: UL99 late transcript level by qPCR; format: cell-based, human cytomegalovirus; conditions: rapamycin 20 nM, Torin1 250 nM; 3 PFU/cell
[2] = tested on: HCMV; experiment: Western blot of HCMV proteins (IE1, pUL44, pUL99) in infected fibroblasts; format: cell-based, human cytomegalovirus; conditions: 6 to 96 hpi; rapamycin 20 nM, Torin1 250 nM; 3 PFU/cell
Protocol: FIG. 2. […] Serum-starved confluent fibroblasts were infected with HCMV at a multiplicity of 3 PFU/cell. […] Control cultures received the vehicle in which Torin1 was dissolved (NT). At 2 hpi cells were harvested, and cell-associated viral DNA was quantified by real-time PCR analysis. Error bars represent the standard errors of the means from two independent experiments performed in duplicate. […] The level of IE1 was determined at 6 hpi by a Western blot assay using an IE1-specific monoclonal antibody. The image is representative of two independent experiments. […] The expression of a GFP marker gene present in the viral genome was monitored at 24 h after infection in the presence or absence of drug.
FIG. 3. […] (A) Rapamycin-resistant mTOR activity is required for the accumulation of an some but not all HCMV proteins. […] Cells were harvested at the indicated times, and the accumulation of the indicated proteins was analyzed by Western blotting. […] At the indicated times DNA was isolated, and viral DNA was quantified by qPCR. Equivalent amounts of DNA were analyzed for each sample, and the results are normalized to the level of actin DNA per sample. […] At the indicated times the amount of UL99 RNA was determined by qPCR, and the results are normalized to the amount of actin RNA in each sample.
Cells were lysed in radioimmunoprecipitation assay (RIPA) buffer (50 mM Tris-HCl [pH 7.4], […], 0.25% sodium deoxycholate, 150 mM NaCl, 1 mM EDTA) containing protease inhibitors (complete EDTA free; Roche). Protein concentrations in each lysate were determined by the Bradford assay. 30 μg of protein was analyzed per sample. Proteins in cell lysates were resolved on SDS-containing 10% polyacrylamide gels. Proteins were transferred onto Protran membranes by using a semidry transfer apparatus. […]
Antibodies to pUL99 have been described previously (Silva, et al. J. Virol. (2003) 77:10594-10605). In addition, accumulation of HCMV DNA was monitored following infection using the methods described above.

[3] = tested on: HCMV; experiment: Torin1 drug release experiment, HCMV yield 16 days post infection by TCID50; format: cell-based, human cytomegalovirus; conditions: ≤250 nM drug
Protocol: FIG. 1. […] Serum-starved confluent human fibroblasts were infected with HCMV at a multiplicity of 0.05 PFU/cell. Cell-free virus was quantified by a TCID50 assay, and error bars represent the standard errors of the means from two independent experiments, each performed in duplicate. […] Supernatants were harvested every other day and replaced with fresh medium containing the appropriate treatment, and virus in the supernatant was assayed on the indicated days. […] Infected fibroblasts were treated with various doses of Torin1. Medium with drug was replaced every other day, and virus in the supernatant was assayed on day 8 post infection (black bars). On day 8, a second set of cultures was washed twice, serum-free medium containing no drug was added to each well, and virus was assayed after an additional 8 days (16 days post infection) (white bars).
To further confirm that the viral growth defect was not the result of cytotoxicity, we performed a drug release experiment. […] Eight days later, virus in the supernatant was quantified by the TCID50 method (16 days post infection) (FIG. 1B).

[4] = tested on: eIF4F complex; experiment: m7G-Sepharose cap-binding assay, MCMV-infected MEFs; format: cell-based, mouse; conditions: Torin1 250 nM, 48 hpi
Protocol: FIG. 7. […] At 6 days post infection the amount of MCMV in cell-free supernatants was determined by the TCID50 method. The error bars represent the standard errors of the means from three independent experiments, each performed in duplicate. […] At 48 hpi equal amounts of protein from cell lysates were incubated with m^7G-Sepharose. The presence of eIF4F complex components bound by the cap analog was determined by Western blotting. The results are representative of two independent experiments.
We first investigated the requirement for mTORC2 for the replication of MCMV. […] Finally, the cells were confirmed to lack an intact Rictor locus when assayed by PCR (FIG. 6C). We also employed Akt1/Akt2-null MEFs to evaluate a possible role for the Akt kinase, one of the targets of mTORC2. […] Again, the cells were confirmed to lack Akt by Western blot assay (FIG. 6F). […] 4EBP1 functions to inhibit eIF4F complex assembly unless inactivated by mTORC1-mediated phosphorylation. […] Finally, that 4EBP1 was not detected in lysates of these cells by Western blot assay confirmed the phenotype of the MEFs.

CCC(=O)N1CCN(c2ccc(-n3c(=O)ccc4cnc5ccc(-c6cnc7ccccc7c6)cc5c43)cc2C(F)(F)F)CC1 [Torin1]
levels of UL99 mRNA [1]: decreased the levels of UL99 mRNA
accumulation of early protein pUL44 [2]: inhibited the accumulation of IE1 and pUL44 to a limited extent
accumulation of immediate-early protein IE1 [2]: inhibited the accumulation of IE1 and pUL44 to a limited extent
accumulation of late protein pUL99 [2]: dramatically reduced
increase in virus yield after reversal of 8-day treatment [3]: ≥ 100 fold
formation of the eIF4F complex ([4]; 4EBP1-null MEFs): no such effect was observed
formation of the eIF4F complex ([4]; control MEFs): inhibited the formation of the eIF4F complex
